Data taken from patent publication US20220213060A1, “Crystal Form of Quinazolinone Compound and Preparation Method Therefor” (Luoxin Healthcare Science and Technology Development …, priority 2019, published 2022).

Key:
[1] = Beagle dog absorption test (pharmacokinetics); assay type: in vivo, Beagle dogs; settings: male and female Beagle dogs, oral, 0.3 mg/kg, single
Protocol: Beagle dogs were given the crystal form A of the compound represented by formula (I) by single or multiple oral administration and single intravenous injection respectively, with 6 dogs in each group, half male and half female. The single oral doses were 0.3, land 3 mg/kg respectively; the multiple doses were 1 mg/kg, once a day for 7 consecutive days; the single intravenous dose was 0.3 mg/kg. According to the drug plasma concentration-time curve, the pharmacokinetic parameters were calculated, the results are shown in Table 15. The vehicle for drug preparation in group 1 was 5% HP-beta-CD, 5% solutol, pH=8 aqueous solution, the vehicles for groups 2, 3, 4 were 0.5% MC, 0.2% Tween80 aqueous solution.

[2] = Hygroscopicity by dynamic vapor sorption (DVS); assay type: physicochemical; settings: 25° C. and 80% RH
Protocol: 1.4 Dynamic Vapor Sorption (DVS) Method of the Present Disclosure
Instrument model: SMS DVS Advantage dynamic vapor sorption instrument
Detection conditions: 10-20 mg of sample was placed in a DVS sample tray for testing.
Detailed DVS parameters were as follows:
Equilibrium: dm/dt=0.01%/min: (shortest: 10 min, longest: 180 min)
Drying: drying at 0% RH for 120 min
RH (%) test gradient: 10%
RH (%) test gradient range: 0%-90%-0%
Hygroscopicity evaluation is classified as follows:
20 mg of the crystal form A of the compound represented by formula (I) was placed in the DVS sample tray for testing.

[3] = test system: HR+/HER2+ human breast cancer BT-474 (PIK3CA amplified); assay: In vivo pharmacodynamic study, BT-474 nude mouse subcutaneous xenograft tumor model; parameters: species or system BALB/c nude mice
Protocol: The phenotype of human BT-474 breast cancer cells is HR+/HER2+, and it has PIK3CA amplification. This experiment evaluated the efficacy of the crystal form A of the compound represented by formula (I) in a human breast cancer xenograft tumor model, using BYL-719 as a reference.
Cell culture: Human breast cancer BT474 cells were cultured in vitro in a single layer, the culture condition was Hybri-Care medium with 10% fetal bovine serum and the cells were incubated in 5% CO2 at 37° C. Digestion and passage treatment with trypsin-EDTA was carried out twice a week. When the cell saturation was 80%-90% and the number reached the requirement, the cells were collected, counted and inoculated.
Animals: BALB/c nude mice, female, 6-8 weeks old, weighing 18-20 g. A total of 85 animals were required, and provided by Shanghai Bikai experimental animal Co., Ltd.
Tumor inoculation: Estrogen tablets (0.36 mg/tablet) were subcutaneously inoculated on the left back of each mouse, three days later, 0.2 mL (10×10^6 cells) of BT474 cells (with matrigel in a volume ratio of 1:1) were subcutaneously inoculated on the right back of each mouse, group administration was started when the average tumor volume reached 150 mm^3−200 mm^3.
Tumor-bearing mice in each administration group had good tolerance to the tested compounds.

PI3Kα = molecular target: T1, PI3Kα (Homo sapiens, UniProt P42336); assay: In vitro enzymatic activity test (ADP-Glo lipid kinase), PI3Kα wild type; assay type: biochemical; settings: Table 17, in vitro screening; read-out: PI3Kα IC50
T1 construct: purchased Millipore 14-602-K
T1 sequence (P42336 whole entry): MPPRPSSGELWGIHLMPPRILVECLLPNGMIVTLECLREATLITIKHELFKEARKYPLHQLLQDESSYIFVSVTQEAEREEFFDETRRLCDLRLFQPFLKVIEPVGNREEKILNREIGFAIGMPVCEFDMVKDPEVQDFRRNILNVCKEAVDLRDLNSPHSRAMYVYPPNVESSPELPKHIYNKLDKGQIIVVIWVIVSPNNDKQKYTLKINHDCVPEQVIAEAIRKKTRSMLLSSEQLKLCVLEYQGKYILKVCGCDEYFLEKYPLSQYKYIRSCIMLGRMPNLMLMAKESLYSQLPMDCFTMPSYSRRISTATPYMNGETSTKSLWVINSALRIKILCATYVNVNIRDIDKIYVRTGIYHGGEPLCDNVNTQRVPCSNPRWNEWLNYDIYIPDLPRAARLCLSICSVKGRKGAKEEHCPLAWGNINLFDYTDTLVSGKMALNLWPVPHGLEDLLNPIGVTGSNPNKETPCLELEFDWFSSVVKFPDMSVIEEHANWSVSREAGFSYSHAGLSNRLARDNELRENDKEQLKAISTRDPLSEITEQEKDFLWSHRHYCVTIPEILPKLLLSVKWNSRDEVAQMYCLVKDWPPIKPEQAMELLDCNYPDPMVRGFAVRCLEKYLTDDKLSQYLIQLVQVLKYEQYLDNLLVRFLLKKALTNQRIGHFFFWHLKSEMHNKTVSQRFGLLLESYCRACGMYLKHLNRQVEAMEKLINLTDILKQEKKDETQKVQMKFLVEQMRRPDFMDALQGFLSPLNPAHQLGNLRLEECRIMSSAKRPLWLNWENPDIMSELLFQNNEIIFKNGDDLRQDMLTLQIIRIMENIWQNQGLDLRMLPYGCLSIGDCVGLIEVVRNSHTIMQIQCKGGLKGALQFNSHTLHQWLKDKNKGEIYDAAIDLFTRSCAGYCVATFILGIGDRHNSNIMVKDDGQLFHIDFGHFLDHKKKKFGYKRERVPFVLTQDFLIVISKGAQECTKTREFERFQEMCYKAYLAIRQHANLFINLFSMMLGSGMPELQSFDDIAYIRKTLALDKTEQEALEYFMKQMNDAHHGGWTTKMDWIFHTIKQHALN
T1 sequence (P27986 whole entry partner): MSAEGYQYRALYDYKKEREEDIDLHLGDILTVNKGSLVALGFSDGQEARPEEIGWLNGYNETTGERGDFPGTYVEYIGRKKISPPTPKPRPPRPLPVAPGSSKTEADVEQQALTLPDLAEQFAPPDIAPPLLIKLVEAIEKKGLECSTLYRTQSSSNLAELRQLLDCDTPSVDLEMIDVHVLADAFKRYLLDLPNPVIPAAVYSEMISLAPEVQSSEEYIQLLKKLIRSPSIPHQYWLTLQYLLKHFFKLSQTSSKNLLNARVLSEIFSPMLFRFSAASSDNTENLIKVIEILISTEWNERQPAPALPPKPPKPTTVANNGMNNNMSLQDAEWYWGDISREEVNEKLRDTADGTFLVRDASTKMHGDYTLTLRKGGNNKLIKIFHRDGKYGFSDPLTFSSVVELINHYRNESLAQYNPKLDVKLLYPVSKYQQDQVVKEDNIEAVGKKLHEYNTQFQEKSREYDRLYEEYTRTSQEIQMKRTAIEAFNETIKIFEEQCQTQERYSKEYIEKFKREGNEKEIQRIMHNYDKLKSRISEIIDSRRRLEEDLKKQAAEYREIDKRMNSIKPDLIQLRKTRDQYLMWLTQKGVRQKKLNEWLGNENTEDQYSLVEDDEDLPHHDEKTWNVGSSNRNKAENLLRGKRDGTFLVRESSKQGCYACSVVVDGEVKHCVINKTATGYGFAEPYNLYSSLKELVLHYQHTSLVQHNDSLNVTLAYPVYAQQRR
Protocol: (§1) The lipid kinase reaction was carried out in a suitable substrate and under ATP conditions, then the activity of the kinase was detected by ADP-Glo™ kit in two steps. Step 1: the kinase reaction was terminated, in which the residual ATP was completely removed and only ADP was retained; step 2: kinase detection reagent was added to convert ADP to ATP, accompanied by fluorescein/luciferase reaction. Finally, the fluorescence value output was converted into kinase activity.
(§2) Experimental Materials and Equipment:
(§3) 2) Kit: ADP-Glo™ lipid kinase and PIP2:3PS kit (Promega #V1792)
(§4) The reagent kit contains: 1 mM PIP2:3PS, 10× lipid dilution buffer, 1 M magnesium chloride, 10 mM ATP, 10 mM ADP, ADP-Glo reagent, detection buffer and detection substrate.
(§5) 3) Reaction plate: OptiPlate-384, white and transparent (PerkinElmer #6007299)
(§6) 1) 10× reaction buffer: 500 mM HEPES, pH 7.5, 500 mM NaCl, […]; BSA: 10% stock solution, self-made
(§7) 2) Final test system conditions: 1× reaction system: 50 mM of HEPES, 50 mM of NaCl, 3 mM of MgCl2, 0.01% BSA (freshly prepared on the day of experiment), 1% DMSO (v/v)+/−compound
(§8) 3) Reaction system: 3 μL of mixture of enzyme and substrate (1:1)+2 μL of ATP/MgCl2 mixture+5 μL of ADP-Glo reagent+10 μL of detection reagent.
(§9) The specific experimental operations were as follows: […]
(§10) (16) Fluorescence values were measured on the Envision instrument.

PI3Kδ = molecular target: T2, PI3Kδ (Homo sapiens, UniProt O00329); assay: In vitro enzymatic activity test (ADP-Glo lipid kinase), PI3Kδ; assay type: biochemical; settings: Table 17, in vitro screening
T2 construct: purchased Millipore 14-604-K
T2 sequence (O00329 whole entry): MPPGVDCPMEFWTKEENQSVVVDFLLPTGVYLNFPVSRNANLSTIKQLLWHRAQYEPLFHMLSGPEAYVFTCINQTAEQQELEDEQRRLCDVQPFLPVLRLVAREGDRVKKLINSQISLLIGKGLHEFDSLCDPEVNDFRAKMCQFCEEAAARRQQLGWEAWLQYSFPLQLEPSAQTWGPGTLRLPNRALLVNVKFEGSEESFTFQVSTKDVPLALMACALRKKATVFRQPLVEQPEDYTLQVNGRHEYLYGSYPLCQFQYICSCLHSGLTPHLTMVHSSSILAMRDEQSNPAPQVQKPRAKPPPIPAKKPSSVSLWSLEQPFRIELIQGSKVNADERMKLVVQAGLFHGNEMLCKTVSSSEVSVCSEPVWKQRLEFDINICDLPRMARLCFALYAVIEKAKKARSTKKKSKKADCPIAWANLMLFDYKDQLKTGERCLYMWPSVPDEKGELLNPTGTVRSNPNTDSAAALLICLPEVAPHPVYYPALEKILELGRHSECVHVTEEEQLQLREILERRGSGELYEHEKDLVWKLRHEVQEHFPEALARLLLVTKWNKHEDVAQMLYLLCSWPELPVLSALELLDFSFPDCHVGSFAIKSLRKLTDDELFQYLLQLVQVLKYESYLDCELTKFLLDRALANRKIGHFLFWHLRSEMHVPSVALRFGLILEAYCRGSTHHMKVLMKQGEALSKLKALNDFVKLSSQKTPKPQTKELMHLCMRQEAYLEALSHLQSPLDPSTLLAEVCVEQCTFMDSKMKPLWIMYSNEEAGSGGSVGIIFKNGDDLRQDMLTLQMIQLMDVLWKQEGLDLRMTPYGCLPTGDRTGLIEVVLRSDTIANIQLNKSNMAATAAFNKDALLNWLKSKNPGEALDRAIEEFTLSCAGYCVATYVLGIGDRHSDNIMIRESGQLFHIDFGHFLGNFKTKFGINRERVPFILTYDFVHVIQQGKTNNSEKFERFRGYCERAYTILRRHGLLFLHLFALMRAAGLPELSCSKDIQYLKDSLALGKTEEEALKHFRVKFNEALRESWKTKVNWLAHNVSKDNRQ
T2 sequence (P27986 whole entry partner): as the sequence (P27986 whole entry partner) above
Protocol: as §1, §2, §3, §4, §5, §6, §7, §8, §9, §10

MCF7 cell line = assay: In vitro cell activity test: ELISA of Akt phosphorylation in MCF7 cells; assay type: cell-based; settings: Homo sapiens; inhibition of Akt phosphorylation, insulin-stimulated MCF7 cells
From the text: ELISA method was used to measure the inhibition level of the compounds to be tested on the phosphorylation of Akt, which is the downstream protein of PI3K in signal pathway in MCF7 cell line to reflect the cell activity of the compounds.
Cell culture medium: complete cell culture medium (RPMI 1640+10% serum+1% L-glutamine+1% double antibody)
Serum-free medium (without serum, RPMI 1640+1% L-glutamine+1% double antibody)
Specific operation steps were as follows:
(1) MCF7 cells (ATCC® HTB-22™) were inoculated into a 96-well plate with 100 μL (2.5 10^4 cells per well) of complete cell culture medium, and incubated at 37° C. and 5% CO2 for 24 hours.
(2) The complete cell culture medium was replaced with 100 μL serum-free medium, and incubated overnight in starvation
(3) The compound (the initial concentration of the compound was 1 mM, which was subjected to a three-fold dilution in 10 concentrations. Then, each concentration of the compound was diluted 100-fold with serum-free medium), and 25 μL of the diluted compound was added to the well plate containing cells.
(4) The cells were incubated at 37° C. and 5% CO2 for 2 h
(5) 10 μg/mL insulin (Sigma #I9278-5 mL) was used to stimulate the cells in the well plate, incubated for 30 min, and then centrifuged at 1000 rpm for 5 min at room temperature.
(6) 250 μL 1× balanced salt solution (Invitrogen, #14065-056, 4° C., containing 1 mM/L Na3VO4) was added to each well to wash the cells once
(7) 100 μL of lysis buffer (tris(hydroxymethyl)aminomethane hydrochloride, Invitrogen, #15567-1000 ml) was added to each well and shaken at 4° C. for 60 min, and then centrifuged at 4000 rpm for 10 min at 4° C.
(8) The subsequent steps were performed according to the ELISA kit (TGR BioSciences #EKT002) instructions.

PI3Kγ = molecular target: T3, PI3Kγ (Homo sapiens, UniProt P48736); assay: In vitro enzymatic activity test (ADP-Glo lipid kinase), PI3Kγ; assay type: biochemical; settings: Table 17, in vitro screening
T3 construct: purchased Millipore 14-558-K
T3 sequence (P48736 whole entry): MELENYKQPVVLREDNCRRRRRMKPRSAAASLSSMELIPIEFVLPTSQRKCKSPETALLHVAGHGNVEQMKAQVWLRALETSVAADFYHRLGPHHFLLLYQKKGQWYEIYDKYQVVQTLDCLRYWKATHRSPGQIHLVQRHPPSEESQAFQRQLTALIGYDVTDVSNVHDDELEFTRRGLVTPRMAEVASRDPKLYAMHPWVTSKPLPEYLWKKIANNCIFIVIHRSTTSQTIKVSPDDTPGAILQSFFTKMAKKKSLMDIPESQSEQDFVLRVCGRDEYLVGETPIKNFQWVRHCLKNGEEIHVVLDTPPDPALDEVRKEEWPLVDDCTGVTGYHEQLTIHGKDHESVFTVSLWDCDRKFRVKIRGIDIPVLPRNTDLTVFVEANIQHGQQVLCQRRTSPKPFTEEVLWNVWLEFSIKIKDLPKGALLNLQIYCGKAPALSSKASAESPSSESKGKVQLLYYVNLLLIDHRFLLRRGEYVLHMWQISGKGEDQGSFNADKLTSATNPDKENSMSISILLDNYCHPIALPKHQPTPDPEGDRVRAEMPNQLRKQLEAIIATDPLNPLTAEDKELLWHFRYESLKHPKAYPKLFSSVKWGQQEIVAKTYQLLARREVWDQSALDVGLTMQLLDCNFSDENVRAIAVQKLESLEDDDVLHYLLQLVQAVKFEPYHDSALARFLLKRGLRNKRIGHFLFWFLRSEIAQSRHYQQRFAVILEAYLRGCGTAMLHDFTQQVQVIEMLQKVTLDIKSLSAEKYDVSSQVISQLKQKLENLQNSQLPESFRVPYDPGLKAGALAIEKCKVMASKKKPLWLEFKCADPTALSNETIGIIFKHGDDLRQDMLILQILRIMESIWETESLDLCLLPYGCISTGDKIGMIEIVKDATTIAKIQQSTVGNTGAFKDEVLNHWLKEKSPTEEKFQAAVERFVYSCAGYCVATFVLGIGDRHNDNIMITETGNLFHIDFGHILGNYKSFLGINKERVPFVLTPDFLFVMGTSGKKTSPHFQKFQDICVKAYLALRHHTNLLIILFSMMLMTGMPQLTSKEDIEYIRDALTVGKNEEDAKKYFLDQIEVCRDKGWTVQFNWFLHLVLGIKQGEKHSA
Protocol: as §1, §2, §3, §4, §5, §6, §7, §8, §9, §10

PI3Kβ = molecular target: T4, PI3Kβ (Homo sapiens, UniProt P42338); assay: In vitro enzymatic activity test (ADP-Glo lipid kinase), PI3Kβ; assay type: biochemical; settings: Table 17, in vitro screening
T4 construct: purchased Promega V1751
T4 sequence (P42338 whole entry): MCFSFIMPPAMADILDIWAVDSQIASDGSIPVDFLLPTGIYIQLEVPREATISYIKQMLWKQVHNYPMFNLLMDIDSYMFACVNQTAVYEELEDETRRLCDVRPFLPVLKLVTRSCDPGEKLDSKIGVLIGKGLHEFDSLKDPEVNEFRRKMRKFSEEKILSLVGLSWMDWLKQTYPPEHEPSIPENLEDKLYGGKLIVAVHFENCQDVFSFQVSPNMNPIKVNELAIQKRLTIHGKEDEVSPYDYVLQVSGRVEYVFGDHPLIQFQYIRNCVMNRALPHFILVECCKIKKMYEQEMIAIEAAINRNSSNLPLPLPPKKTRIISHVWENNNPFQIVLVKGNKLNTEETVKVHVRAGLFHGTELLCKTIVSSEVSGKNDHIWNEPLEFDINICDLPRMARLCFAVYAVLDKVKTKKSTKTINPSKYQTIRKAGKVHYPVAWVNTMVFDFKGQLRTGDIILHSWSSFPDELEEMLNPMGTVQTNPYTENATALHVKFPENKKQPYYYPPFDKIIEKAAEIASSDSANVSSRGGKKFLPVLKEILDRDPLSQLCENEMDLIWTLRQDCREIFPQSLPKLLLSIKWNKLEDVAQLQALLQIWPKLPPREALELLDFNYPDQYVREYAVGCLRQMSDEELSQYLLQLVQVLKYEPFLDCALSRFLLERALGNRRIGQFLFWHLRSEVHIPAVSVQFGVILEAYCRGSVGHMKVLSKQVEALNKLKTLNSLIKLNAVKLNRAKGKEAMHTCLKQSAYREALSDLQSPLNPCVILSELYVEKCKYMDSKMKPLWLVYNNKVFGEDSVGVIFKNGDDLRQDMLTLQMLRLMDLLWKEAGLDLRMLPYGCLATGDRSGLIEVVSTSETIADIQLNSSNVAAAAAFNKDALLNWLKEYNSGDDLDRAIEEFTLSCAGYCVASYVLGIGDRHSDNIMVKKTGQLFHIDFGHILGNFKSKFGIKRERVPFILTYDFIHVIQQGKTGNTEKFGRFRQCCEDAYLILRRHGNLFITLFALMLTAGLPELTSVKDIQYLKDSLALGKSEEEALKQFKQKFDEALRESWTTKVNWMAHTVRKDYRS
T4 sequence (P27986 whole entry partner): as the sequence (P27986 whole entry partner) above
Protocol: as §1, §2, §3, §4, §5, §6, §7, §8, §9, §10

[4] = 40 mg/kg, oral once a day for 20 days

SMILES: CNC(=O)[C@H](C)Cn1cnc2ccc(-c3cnc(OC)c(NS(=O)(=O)c4ccc(F)cc4F)c3)cc2c1=O [listing 1 of 2 here]
- Oral bioavailability (%) [1]: 71.2%

SMILES: CNC(=O)[C@H](C)Cn1cnc2ccc(-c3cnc(OC)c(NS(=O)(=O)c4ccc(F)cc4F)c3)cc2c1=O [listing 2 of 2 here]
- Classification for hygroscopicity [2]: hygroscopic
- ΔW, hygroscopical weight gain [2]: 2.332%

SMILES: Cc1nc(NC(=O)N2CCC[C@H]2C(N)=O)sc1-c1ccnc(C(C)(C)C(F)(F)F)c1 [BYL-719, reference compound]
- Anti-tumor effect (in words) ([3]; 40 mg/kg group): significant anti-tumor effects
- T/C % [3, 4]: 29.39%
- TGI % [3, 4]: 95.31%

SMILES: CNC(=O)[C@H](C)Cn1cnc2ccc(-c3cnc(OC)c(NS(=O)(=O)c4ccc(F)cc4F)c3)cc2c1=O [Compound represented by formula (I)]
- IC50 (PI3Kα): 0.00175 µM
- IC50 (PI3Kδ): 0.0253 µM
- IC50 (MCF7 cell line): 0.0353 µM
- IC50 (PI3Kγ): 0.0198 µM
- IC50 (PI3Kβ): 0.192 µM

SMILES: COc1ncc(-c2ccc3ncn(CCN(C)C)c(=O)c3c2)cc1NS(=O)(=O)c1ccc(F)cc1 [R011 (A2)]
- IC50 (MCF7 cell line): 0.23 µM

SMILES: CCN(CC)CCn1cnc2ccc(-c3cnc(OC)c(NS(=O)(=O)c4ccc(F)cc4F)c3)cc2c1=O [R012 (A10)]
- IC50 (MCF7 cell line): > 1 µM
